Bridge positions count the residues as written; N and C are the ends. Square brackets hold non-standard residues; d marks the D form. Peptide text beside a SMILES is read from it. * marks the point of attachment. ξ: configuration not given here. Phe(4-COOH) = N[C@@H](Cc1ccc(C(=O)O)cc1)C(=O)O; Trp(6-F) = N[C@@H](Cc1c[nH]c2cc(F)ccc12)C(=O)O; dPhe(4-CN) = N#Cc1ccc(C[C@@H](N)C(=O)O)cc1; Bip = N[C@@H](Cc1ccc(-c2ccccc2)cc1)C(=O)O; Phe(3-OMe) = COc1cccc(C[C@H](N)C(=O)O)c1; Phe(3-Me) = Cc1cccc(C[C@H](N)C(=O)O)c1; 1Nal = N[C@@H](Cc1cccc2ccccc12)C(=O)O; Bta = N[C@@H](Cc1csc2ccccc12)C(=O)O; Val(3-OH) = CC(C)(O)[C@H](N)C(=O)O; 3Pal = N[C@@H](Cc1cccnc1)C(=O)O; 4Pal = N[C@@H](Cc1ccncc1)C(=O)O; Cha = N[C@@H](CC1CCCCC1)C(=O)O; Cit = NC(=O)NCCC[C@H](N)C(=O)O; Ile(3ξ) = CCC(C)[C@H](N)C(=O)O; AllylGly = C=CC[C@H](N)C(=O)O; Thr(3ξ) = CC(O)[C@H](N)C(=O)O; Carboxymethyl = O=C(O)C*; NMeA = CN[C@@H](C)C(=O)O; Orn = NCCC[C@H](N)C(=O)O; Dab = NCC[C@H](N)C(=O)O; Dap = NC[C@H](N)C(=O)O; ξC = NC(CS)C(=O)O
Target: T1, PE-labeled human PD-L1-Ig binding to Jurkat cell line over-expressing human PD-1 (Jurkat-PD-1) (Homo sapiens, UniProt Q15116)
T1 construct: expressed in transfected cells; host or cells: Jurkat
Experiment: Jurkat-PD-1 Cell Binding High-Content Screening Assay (CBA): Method 1
Details: Jurkat HPDL1 PD1 IC50 (uM) (Method 1), Jurkat-hPD-1 cells, PE-labeled PD-L1-Ig 20 nM final

T1 sequence (Q15116 25-288): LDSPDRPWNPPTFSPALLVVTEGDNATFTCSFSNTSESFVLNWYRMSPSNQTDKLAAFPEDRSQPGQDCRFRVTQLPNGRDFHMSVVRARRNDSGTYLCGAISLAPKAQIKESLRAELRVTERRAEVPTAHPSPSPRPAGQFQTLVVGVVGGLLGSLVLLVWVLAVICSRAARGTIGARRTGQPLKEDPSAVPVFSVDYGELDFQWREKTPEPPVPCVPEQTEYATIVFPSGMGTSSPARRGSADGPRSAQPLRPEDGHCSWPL

| SMILES | IC50 |
| --- | --- |
| CC(C)C[C@@H]1NC(=O)[C@H](CCN)NC(=O)[C@@H](CC(C)C)NC(=O)[C@H](C)N(C)C(=O)[C@H](C(C)C)NC(=O)[C@H](Cc2ccc(-c3ccccc3)cc2)NC(=O)[C@H](C(C)C)NC(=O)[C@H](Cc2c[nH]c3ccccc23)NC(=O)[C@H](CC(=O)O)NC(=O)[C@H](Cc2ccncc2)NC(=O)[C@H](CN)NC(=O)CSC[C@@H](C(=O)N[C@@H](C)C(N)=O)NC(=O)[C@H]([C@@H](C)O)NC(=O)[C@H](C(C)C)NC1=O [Compound 1542] ({CH2CO}-[Dap][4Pal]DWV[Bip]V[NMeA][dL][Dab]LVTCA-NH2; thioether N-14) | 0.04 µM |

Same assay, conditions: Jurkat-hPD-1 cells, PE-labeled PD-L1-Ig 20 nM final; read-out: Jurkat HPDL1 PD1 IC50 (uM) (Method 1)

| SMILES | IC50 |
| --- | --- |
| CC(C)C[C@@H]1NC(=O)[C@H](CCN)NC(=O)[C@@H](CC(C)C)NC(=O)[C@H](C)N(C)C(=O)[C@H](CCCNC(N)=O)NC(=O)[C@H](Cc2ccc(-c3ccccc3)cc2)NC(=O)[C@H](C(C)C)NC(=O)[C@H](Cc2c[nH]c3ccccc23)NC(=O)[C@H](CC(=O)O)NC(=O)[C@H](Cc2ccc(C(=O)O)cc2)NC(=O)[C@H](CC(N)=O)NC(=O)CSC[C@@H](C(=O)N[C@@H](C)C(N)=O)NC(=O)[C@H]([C@@H](C)O)NC(=O)[C@H](C(C)C)NC1=O [Compound 1317] ({CH2CO}-N[Phe(4-COOH)]DWV[Bip][Cit][NMeA][dL][Dab]LVTCA-NH2; thioether N-14) | 0.04 µM |
| CC(C)C[C@@H]1NC(=O)[C@H](CCCNC(=N)N)NC(=O)[C@@H](CC(C)C)NC(=O)[C@H](C)N(C)C(=O)[C@H](CCCNC(=N)N)NC(=O)[C@H](Cc2ccc(-c3ccccc3)cc2)NC(=O)[C@H](C(C)C)NC(=O)[C@H](Cc2c[nH]c3cc(F)ccc23)NC(=O)[C@H](CC(=O)O)NC(=O)[C@H](Cc2ccc(O)cc2)NC(=O)[C@H](Cc2ccccc2)NC(=O)CSC[C@@H](C(=O)N[C@@H](C)C(N)=O)NC(=O)[C@H]([C@@H](C)O)NC(=O)[C@H](C(C)C)NC1=O [Compound 1079] ({CH2CO}-FYD[Trp(6-F)]V[Bip]R[NMeA][dL]RLVTCA-NH2; thioether N-14) | 0.25 µM |
| CCC(C)[C@@H]1NC(=O)[C@H](Cc2ccc(-c3ccccc3)cc2)NC(=O)[C@H](C(C)C)NC(=O)[C@H](Cc2c[nH]c3ccccc23)NC(=O)[C@H](CC(=O)O)NC(=O)[C@H](Cc2ccc(O)cc2)NC(=O)[C@H](Cc2ccncc2)NC(=O)CSC[C@@H](C(=O)N[C@@H](CN)C(N)=O)NC(=O)[C@H](C(C)O)NC(=O)[C@H](C(C)C)NC(=O)[C@H](CC2CCCCC2)NC(=O)[C@H](CC(N)=O)NC(=O)[C@@H](CC(C)C)NC(=O)[C@H](C)N(C)C1=O (stereo partly drawn) [Compound 2157] ({CH2CO}-[4Pal]YDWV[Bip][Ile(3ξ)][NMeA][dL]N[Cha]V[Thr(3ξ)]C[Dap]-NH2; thioether N-14) | 0.04 µM |
| Cc1cccc(C[C@@H]2NC(=O)[C@H](CC(=O)O)NC(=O)[C@H](Cc3ccc(OCC(=O)O)cc3)NC(=O)[C@H](C(C)O)NC(=O)CSC[C@@H](C(N)=O)NC(=O)[C@H](C(C)O)NC(=O)[C@H](C(C)C)NC(=O)[C@H](CC3CCCCC3)NC(=O)[C@H](CCN)NC(=O)[C@@H](CC(C)C)NC(=O)[C@H](C)N(C)C(=O)[C@H](Cc3ccc(OCC(=O)O)cc3)NC(=O)[C@H](Cc3ccc(-c4ccccc4)cc3)NC(=O)[C@H](Cc3ccc(C(=O)O)cc3)NC2=O)c1 (stereo partly drawn) [Compound 2249] ({CH2CO}-[Thr(3ξ)]Y(Carboxymethyl)D[Phe(3-Me)][Phe(4-COOH)][Bip]Y(Carboxymethyl)[NMeA][dL][Dab][Cha]V[Thr(3ξ)]C-NH2; thioether N-14) | 0.08 µM |
| CCC(C)[C@@H]1NC(=O)[C@H](Cc2ccc(-c3ccccc3)cc2)NC(=O)[C@H](C(C)C)NC(=O)[C@H](Cc2c[nH]c3ccccc23)NC(=O)[C@H](CC(=O)O)NC(=O)[C@H](Cc2cccc(OC)c2)NC(=O)[C@H](Cc2cccnc2)NC(=O)CSC[C@@H](C(=O)NCC(=O)N[C@@H](CN)C(=O)O)NC(=O)[C@H](C(C)O)NC(=O)[C@H](C(C)C)NC(=O)[C@H](CC2CCCCC2)NC(=O)[C@H](CC(N)=O)NC(=O)[C@@H](CC(C)C)NC(=O)[C@H](C)N(C)C1=O (stereo partly drawn) [Compound 2006] ({CH2CO}-[3Pal][Phe(3-OMe)]DWV[Bip][Ile(3ξ)][NMeA][dL]N[Cha]V[Thr(3ξ)]CG[Dap]-OH; thioether N-14) | 0.04 µM |
| CC(C)C[C@@H]1NC(=O)[C@H](CCCNC(=N)N)NC(=O)[C@@H](Cc2ccc(C#N)cc2)NC(=O)[C@H](C)N(C)C(=O)[C@H](CCCNC(=N)N)NC(=O)[C@H](Cc2ccc(-c3ccccc3)cc2)NC(=O)[C@H](C(C)C)NC(=O)[C@H](Cc2c[nH]c3ccccc23)NC(=O)[C@H](CC(=O)O)NC(=O)[C@H](Cc2ccc(O)cc2)NC(=O)[C@H](Cc2ccccc2)NC(=O)CSC[C@@H](C(=O)N[C@@H](C)C(N)=O)NC(=O)[C@H]([C@@H](C)O)NC(=O)[C@H](C(C)C)NC1=O [Compound 1107] ({CH2CO}-FYDWV[Bip]R[NMeA][dPhe(4-CN)]RLVTCA-NH2; thioether N-14) | 0.07 µM |
| Cc1cccc(C[C@@H]2NC(=O)[C@H](CC(=O)O)NC(=O)[C@H](Cc3ccc(OCC(=O)O)cc3)NC(=O)[C@H](C(C)O)NC(=O)CSC[C@@H](C(=O)N[C@@H](CCN)C(N)=O)NC(=O)[C@H](C(C)O)NC(=O)[C@H](C(C)C)NC(=O)[C@H](CC3CCCCC3)NC(=O)[C@H](CCN)NC(=O)[C@@H](CC(C)C)NC(=O)[C@H](C)N(C)C(=O)[C@H](Cc3ccc(OCC(=O)O)cc3)NC(=O)[C@H](Cc3ccc(-c4ccccc4)cc3)NC(=O)[C@H](Cc3ccc(C(=O)O)cc3)NC2=O)c1 (stereo partly drawn) [Compound 2115] ({CH2CO}-[Thr(3ξ)]Y(Carboxymethyl)D[Phe(3-Me)][Phe(4-COOH)][Bip]Y(Carboxymethyl)[NMeA][dL][Dab][Cha]V[Thr(3ξ)]C[Dab]-NH2; thioether N-14) | 0.01 µM |
| C=CC[C@H](NC(=O)C1CSCC(=O)N[C@@H](Cc2ccc(OCC(=O)O)cc2)C(=O)N[C@@H](CC=C)C(=O)N[C@@H](CC(=O)O)C(=O)N[C@@H](Cc2cccc(C)c2)C(=O)N[C@@H](CC(C)C)C(=O)N[C@@H](Cc2ccc(-c3ccccc3)cc2)C(=O)N[C@@H](C(C)C)C(=O)N(C)[C@@H](C)C(=O)N[C@H](CC(C)C)C(=O)N[C@@H](CC(N)=O)C(=O)N[C@@H](CC(C)C)C(=O)N[C@@H](C(C)C)C(=O)N[C@@H](CO)C(=O)N1)C(N)=O (stereo partly drawn) [Compound 1884] ({CH2CO}-Y(Carboxymethyl)[AllylGly]D[Phe(3-Me)]L[Bip]V[NMeA][dL]NLVS[ξC][AllylGly]-NH2; thioether N-14) | 0.03 µM |
| CC(C)C[C@@H]1NC(=O)[C@H](CCCNC(=N)N)NC(=O)[C@@H](CC(C)C)NC(=O)[C@H](C)N(C)C(=O)[C@H](CCCNC(=N)N)NC(=O)[C@H](Cc2ccc(-c3ccccc3)cc2)NC(=O)[C@H](C(C)C)NC(=O)[C@H](Cc2c[nH]c3ccccc23)NC(=O)[C@H](CC(=O)O)NC(=O)[C@H](Cc2ccc(O)cc2)NC(=O)[C@H](Cc2ccccc2)NC(=O)CSC[C@@H](C(=O)NCC(N)=O)NC(=O)[C@H](CO)NC(=O)[C@H](C(C)C)NC1=O [Compound 1017] ({CH2CO}-FYDWV[Bip]R[NMeA][dL]RLVSCG-NH2; thioether N-14) | 0.04 µM |
| Cc1cccc(C[C@@H]2NC(=O)[C@H](CC(=O)O)NC(=O)[C@H](Cc3ccc(OCC(=O)O)cc3)NC(=O)[C@H](CN)NC(=O)CSC[C@@H](C(=O)N[C@@H](CCN)C(N)=O)NC(=O)[C@H](CCCN)NC(=O)[C@H](C(C)C)NC(=O)[C@H](CC(C)C)NC(=O)[C@H](CCN)NC(=O)[C@@H](C)NC(=O)[C@H](C)N(C)C(=O)[C@H](Cc3ccc(O)cc3)NC(=O)[C@H](Cc3ccc(-c4ccccc4)cc3)NC(=O)[C@H](Cc3ccc(O)cc3)NC2=O)c1 [Compound 1874] ({CH2CO}-[Dap]Y(Carboxymethyl)D[Phe(3-Me)]Y[Bip]Y[NMeA][dA][Dab]LV[Orn]C[Dab]-NH2; thioether N-14) | 0.28 µM |
| CCNC(=O)[C@H](CCN)NC(=O)[C@@H]1CSCC(=O)N[C@@H](CCN)C(=O)N[C@@H](Cc2ccc(C(=O)O)cc2)C(=O)N[C@@H](CC(=O)O)C(=O)N[C@@H](Cc2c[nH]c3ccccc23)C(=O)N[C@@H](CC(C)C)C(=O)N[C@@H](Cc2ccc(-c3ccccc3)cc2)C(=O)N[C@@H]([C@@H](C)CC)C(=O)N(C)[C@@H](C)C(=O)N[C@H](CC(C)C)C(=O)N[C@@H](CCN)C(=O)N[C@@H](CC2CCCCC2)C(=O)N[C@@H](C(C)(C)O)C(=O)N[C@@H](CO)C(=O)N1 [Compound 1850] ({CH2CO}-[Dab][Phe(4-COOH)]DWL[Bip]I[NMeA][dL][Dab][Cha][Val(3-OH)]SC[Dab]-NHEt; thioether N-14) | 0.01 µM |
| CC(C)C[C@@H]1NC(=O)[C@H](Cc2c[nH]c3ccccc23)NC(=O)[C@H](CC(=O)O)NC(=O)[C@H](Cc2ccc(O)cc2)NC(=O)[C@H](Cc2ccccc2)NC(=O)CSC[C@@H](C(=O)NCC(N)=O)NC(=O)[C@H]([C@@H](C)O)NC(=O)[C@H](C(C)C)NC(=O)[C@H](CC(C)C)NC(=O)[C@H](CCN)NC(=O)[C@@H](CC(C)C)NC(=O)[C@H](C)N(C)C(=O)[C@H](C(C)C)NC(=O)[C@H](Cc2ccc(-c3ccccc3)cc2)NC1=O [Compound 1469] ({CH2CO}-FYDWL[Bip]V[NMeA][dL][Dab]LVTCG-NH2; thioether N-14) | 0.01 µM |
| CC(C)C[C@@H]1NC(=O)[C@H](CCCNC(=N)N)NC(=O)[C@H](Cc2cccc3ccccc23)NC(=O)[C@H](C)N(C)C(=O)[C@H](CCCNC(=N)N)NC(=O)[C@H](Cc2ccc(-c3ccccc3)cc2)NC(=O)[C@H](C(C)C)NC(=O)[C@H](Cc2c[nH]c3ccccc23)NC(=O)[C@H](CC(=O)O)NC(=O)[C@H](Cc2ccc(O)cc2)NC(=O)[C@H](Cc2ccccc2)NC(=O)CSC[C@@H](C(=O)NCC(N)=O)NC(=O)[C@H](CO)NC(=O)[C@H](C(C)C)NC1=O [Compound 1012] ({CH2CO}-FYDWV[Bip]R[NMeA][1Nal]RLVSCG-NH2; thioether N-14) | 0.13 µM |
| CC(C)C[C@@H]1NC(=O)[C@H](CCN)NC(=O)[C@H](Cc2csc3ccccc23)NC(=O)[C@H](C)N(C)C(=O)[C@H](CCCN)NC(=O)[C@H](Cc2ccc(-c3ccccc3)cc2)NC(=O)[C@H](C(C)C)NC(=O)[C@H](Cc2c[nH]c3ccccc23)NC(=O)[C@H](CC(=O)O)NC(=O)[C@H](Cc2ccc(O)cc2)NC(=O)[C@H](Cc2ccccc2)NC(=O)CSC[C@@H](C(=O)N[C@@H](C)C(N)=O)NC(=O)[C@H]([C@@H](C)O)NC(=O)[C@H](C(C)C)NC1=O [Compound 1122] ({CH2CO}-FYDWV[Bip][Orn][NMeA][Bta][Dab]LVTCA-NH2; thioether N-14) | 0.24 µM |

— patent US20240409585A1, “MACROCYCLIC IMMUNOMODULATORS” (priority 2021, published 2024)
